Source: ChEMBL document CHEMBL5370531, “Design, synthesis and pharmacological evaluation of 2,3-dihydrobenzofuran IRAK4 inhibitors for the treatment of diffuse large B-cell lymphoma” (Eur J Med Chem, 2023)
Calls of active or inactive are those of the source. No cut-off for these calls is given here.

Tests used:
OCI-Ly10 [1] = test: Induction of apoptosis in human OCILY10 cells assessed as late apoptotic cells at 0.2 uM incubated for 48 hrs by Annexin V-FITC/PI staining based flow cytometry (reference value: 3.54 %); assay type: functional
OCI-Ly10 [2] = test: Induction of apoptosis in human OCILY10 cells at 0.5 uM incubated for 24 hrs by Annexin V-FITC/PI staining based flow cytometry; assay type: functional
OCI-Ly10 [3] = test: Induction of apoptosis in human OCILY10 cells assessed as early apoptotic cells at 1 uM incubated for 48 hrs by Annexin V-FITC/PI staining based flow cytometry (reference value: 5.4 %); assay type: functional
OCI-Ly10 [4] = test: Induction of apoptosis in human OCILY10 cells assessed as early apoptotic cells at 0.2 uM incubated for 24 hrs by Annexin V-FITC/PI staining based flow cytometry (reference value: 10 %); assay type: functional
OCI-Ly10 [5] = test: Induction of apoptosis in human OCILY10 cells assessed as late apoptotic cells at 0.1 uM incubated for 24 hrs by Annexin V-FITC/PI staining based flow cytometry (reference value: 3.71 %); assay type: functional
OCI-Ly10 [6] = test: Induction of apoptosis in human OCILY10 cells assessed as upregulation of PARP cleavage at 0.1 to 1 uM incubated for 48 hrs by immunoblotting analysis; assay type: functional, cell-based; details: dose 0.1-1 µM
[7] = target: Ephrin type-A receptor 2 (Homo sapiens) (UniProt P29317); test: Inhibition of EPHA2 (unknown origin) at 100 nM incubated for 1 hr in presence of ATP by ELISA analysis
Chain of Ephrin type-A receptor 2 (Homo sapiens) (P29317 whole entry): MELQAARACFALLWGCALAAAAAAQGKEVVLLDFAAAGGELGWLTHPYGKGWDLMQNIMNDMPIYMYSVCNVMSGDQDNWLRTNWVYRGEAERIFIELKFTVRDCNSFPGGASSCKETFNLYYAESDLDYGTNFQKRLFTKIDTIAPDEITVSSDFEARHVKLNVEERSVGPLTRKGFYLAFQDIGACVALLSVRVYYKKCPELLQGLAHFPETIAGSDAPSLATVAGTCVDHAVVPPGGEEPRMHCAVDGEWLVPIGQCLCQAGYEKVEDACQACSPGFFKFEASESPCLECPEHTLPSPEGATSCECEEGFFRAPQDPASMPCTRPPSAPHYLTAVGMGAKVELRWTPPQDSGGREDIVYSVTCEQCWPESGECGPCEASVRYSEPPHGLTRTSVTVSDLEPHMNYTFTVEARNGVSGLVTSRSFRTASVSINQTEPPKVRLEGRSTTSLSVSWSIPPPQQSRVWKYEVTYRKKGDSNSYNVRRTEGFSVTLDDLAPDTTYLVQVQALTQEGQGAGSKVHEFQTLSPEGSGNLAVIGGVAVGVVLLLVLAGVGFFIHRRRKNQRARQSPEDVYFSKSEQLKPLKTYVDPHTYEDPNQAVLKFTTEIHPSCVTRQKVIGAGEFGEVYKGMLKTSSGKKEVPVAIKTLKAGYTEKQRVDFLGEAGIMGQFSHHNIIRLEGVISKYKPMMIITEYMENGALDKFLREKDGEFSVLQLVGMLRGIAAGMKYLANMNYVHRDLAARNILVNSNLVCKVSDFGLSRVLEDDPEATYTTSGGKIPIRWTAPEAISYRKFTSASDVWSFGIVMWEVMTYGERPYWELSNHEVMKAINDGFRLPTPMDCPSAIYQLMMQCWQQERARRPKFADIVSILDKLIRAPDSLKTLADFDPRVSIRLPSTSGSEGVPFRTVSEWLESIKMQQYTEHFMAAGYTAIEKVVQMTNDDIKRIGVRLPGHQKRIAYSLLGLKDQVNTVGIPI

OCI-Ly10 [8] = test: Induction of apoptosis in human OCILY10 cells harboring MYD88 L265P assessed as upregulation of caspase-3 cleavage at 0.2 uM in presence of BTK inhibitor, ibrutinib by immunoblotting analysis; assay type: functional, cell-based
OCI-Ly10 [9] = test: Synergistic antiproliferative activity against human OCILY10 cells harboring MYD88 L265P assessed as inhibition of cell growth at 1600 nM incubated for 72 hrs in presence of BTK inhibitor, ibrutinib at 1.6 nM by CCK-8 assay (reference value: 64.69 %); assay type: functional
OCI-Ly10 [10] = test: Induction of apoptosis in human OCILY10 cells assessed as early apoptotic cells at 0.1 uM incubated for 24 hrs by Annexin V-FITC/PI staining based flow cytometry (reference value: 10 %); assay type: functional
[11] = target: Fibroblast growth factor receptor 1 (Homo sapiens) (UniProt P11362); test: Inhibition of FGFR1 (unknown origin) at 100 nM incubated for 1 hr in presence of ATP by ELISA analysis
Chain of Fibroblast growth factor receptor 1 (Homo sapiens) (P11362 22-822 limits assumed): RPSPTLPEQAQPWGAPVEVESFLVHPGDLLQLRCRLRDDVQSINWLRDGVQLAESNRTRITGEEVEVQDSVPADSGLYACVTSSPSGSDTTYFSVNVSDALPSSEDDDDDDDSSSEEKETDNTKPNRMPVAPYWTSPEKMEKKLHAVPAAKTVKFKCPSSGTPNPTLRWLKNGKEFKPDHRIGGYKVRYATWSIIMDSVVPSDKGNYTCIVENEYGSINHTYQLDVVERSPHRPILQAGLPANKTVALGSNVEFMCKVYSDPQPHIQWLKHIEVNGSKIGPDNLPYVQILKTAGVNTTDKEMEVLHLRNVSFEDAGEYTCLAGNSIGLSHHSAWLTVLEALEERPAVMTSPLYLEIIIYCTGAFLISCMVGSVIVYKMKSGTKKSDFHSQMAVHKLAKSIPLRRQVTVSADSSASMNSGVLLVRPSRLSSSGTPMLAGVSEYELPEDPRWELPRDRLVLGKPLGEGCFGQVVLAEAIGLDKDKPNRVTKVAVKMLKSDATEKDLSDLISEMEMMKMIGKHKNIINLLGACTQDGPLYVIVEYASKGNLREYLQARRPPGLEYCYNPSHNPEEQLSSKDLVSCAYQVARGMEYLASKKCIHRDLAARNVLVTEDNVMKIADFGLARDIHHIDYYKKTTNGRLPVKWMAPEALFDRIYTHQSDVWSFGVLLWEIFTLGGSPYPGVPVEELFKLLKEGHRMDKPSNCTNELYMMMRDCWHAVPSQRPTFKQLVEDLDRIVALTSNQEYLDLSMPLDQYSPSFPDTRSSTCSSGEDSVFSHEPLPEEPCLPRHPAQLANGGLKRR

OCI-Ly10 [12] = test: Synergistic antiproliferative activity against human OCILY10 cells harboring MYD88 L265P assessed as inhibition of cell growth at 200 nM incubated for 72 hrs in presence of BTK inhibitor, ibrutinib at 1.6 nM by CCK-8 assay (reference value: 26.07 %); assay type: functional
OCI-Ly10 [13] = test: Synergistic antiproliferative activity against human OCILY10 cells harboring MYD88 L265P assessed as inhibition of cell growth at 800 nM incubated for 72 hrs in presence of BTK inhibitor, ibrutinib at 25 nM by CCK-8 assay (reference value: 54.76 %); assay type: functional
[14] = target: Insulin receptor (Homo sapiens) (UniProt P06213); test: Inhibition of IR (unknown origin) at 100 nM incubated for 1 hr in presence of ATP by ELISA analysis
Chain of Insulin receptor (Homo sapiens) (P06213 28-758 limits assumed): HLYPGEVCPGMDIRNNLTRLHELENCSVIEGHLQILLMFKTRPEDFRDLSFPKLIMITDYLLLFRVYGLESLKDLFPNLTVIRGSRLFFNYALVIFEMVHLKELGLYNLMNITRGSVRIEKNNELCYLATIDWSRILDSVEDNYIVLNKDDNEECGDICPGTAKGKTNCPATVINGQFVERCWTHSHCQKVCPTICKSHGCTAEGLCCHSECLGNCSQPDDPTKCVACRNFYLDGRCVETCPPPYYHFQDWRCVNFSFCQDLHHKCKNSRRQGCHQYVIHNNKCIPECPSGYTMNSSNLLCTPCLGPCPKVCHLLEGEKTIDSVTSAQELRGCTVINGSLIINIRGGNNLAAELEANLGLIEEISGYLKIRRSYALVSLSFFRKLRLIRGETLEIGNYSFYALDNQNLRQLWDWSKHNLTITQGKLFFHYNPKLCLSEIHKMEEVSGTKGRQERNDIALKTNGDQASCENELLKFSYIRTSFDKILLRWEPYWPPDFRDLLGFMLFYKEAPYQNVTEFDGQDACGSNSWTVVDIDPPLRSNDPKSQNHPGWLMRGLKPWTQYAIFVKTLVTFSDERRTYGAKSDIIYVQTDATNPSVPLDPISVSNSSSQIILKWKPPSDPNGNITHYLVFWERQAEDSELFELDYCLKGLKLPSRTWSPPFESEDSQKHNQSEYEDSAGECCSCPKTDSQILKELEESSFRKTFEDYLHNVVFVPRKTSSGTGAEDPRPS
Chain of Insulin receptor (Homo sapiens) (P06213 763-1382 limits assumed): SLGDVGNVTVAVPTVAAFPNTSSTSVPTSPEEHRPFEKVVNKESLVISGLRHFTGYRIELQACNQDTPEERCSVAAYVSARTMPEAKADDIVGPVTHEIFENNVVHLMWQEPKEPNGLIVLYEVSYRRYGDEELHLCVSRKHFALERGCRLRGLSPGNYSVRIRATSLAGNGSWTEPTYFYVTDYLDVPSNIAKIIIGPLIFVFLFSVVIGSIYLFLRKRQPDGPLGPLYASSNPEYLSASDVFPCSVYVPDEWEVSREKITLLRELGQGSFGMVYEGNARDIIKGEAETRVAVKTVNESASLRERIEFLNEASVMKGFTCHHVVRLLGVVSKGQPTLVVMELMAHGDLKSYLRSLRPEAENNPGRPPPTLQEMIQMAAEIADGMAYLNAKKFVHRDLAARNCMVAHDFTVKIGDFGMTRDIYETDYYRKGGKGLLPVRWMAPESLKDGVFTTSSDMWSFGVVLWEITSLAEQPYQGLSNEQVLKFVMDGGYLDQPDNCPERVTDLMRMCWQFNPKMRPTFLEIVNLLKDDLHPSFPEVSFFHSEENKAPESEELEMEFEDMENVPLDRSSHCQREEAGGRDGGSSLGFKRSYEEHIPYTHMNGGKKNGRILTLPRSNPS

[15] = target: T1, Interleukin-1 receptor-associated kinase 4 (Homo sapiens, UniProt Q9NWZ3); test: Inhibition of IRAK4 (unknown origin) by Z-LYTE enzymatic kinase assay
T1 sequence (Q9NWZ3 whole entry): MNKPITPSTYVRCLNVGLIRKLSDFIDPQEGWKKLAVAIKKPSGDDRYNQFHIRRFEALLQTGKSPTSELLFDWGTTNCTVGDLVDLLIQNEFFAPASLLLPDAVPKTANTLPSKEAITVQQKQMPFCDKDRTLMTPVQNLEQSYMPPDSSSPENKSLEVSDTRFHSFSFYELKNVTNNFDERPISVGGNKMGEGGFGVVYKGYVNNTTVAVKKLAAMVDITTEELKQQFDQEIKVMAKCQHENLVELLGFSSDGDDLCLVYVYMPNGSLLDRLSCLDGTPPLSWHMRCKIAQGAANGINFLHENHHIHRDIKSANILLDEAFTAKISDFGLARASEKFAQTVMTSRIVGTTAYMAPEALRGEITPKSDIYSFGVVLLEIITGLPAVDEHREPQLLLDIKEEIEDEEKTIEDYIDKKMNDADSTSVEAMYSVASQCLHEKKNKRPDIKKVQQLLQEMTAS

OCI-Ly10 [16] = test: Synergistic antiproliferative activity against human OCILY10 cells harboring MYD88 L265P assessed as inhibition of cell growth at 100 nM incubated for 72 hrs in presence of BTK inhibitor, ibrutinib at 6.2 nM by CCK-8 assay (reference value: 21.36 %); assay type: functional
OCI-Ly10 [17] = test: Synergistic antiproliferative activity against human OCILY10 cells harboring MYD88 L265P assessed as inhibition of cell growth at 800 nM incubated for 72 hrs in presence of BTK inhibitor, ibrutinib at 3.1 nM by CCK-8 assay (reference value: 54.76 %); assay type: functional
OCI-Ly10 [18] = test: Synergistic antiproliferative activity against human OCILY10 cells harboring MYD88 L265P assessed as inhibition of cell growth at 100 nM incubated for 72 hrs in presence of BTK inhibitor, ibrutinib at 12.5 nM by CCK-8 assay (reference value: 21.36 %); assay type: functional
OCI-Ly10 [19] = test: Synergistic antiproliferative activity against human OCILY10 cells harboring MYD88 L265P assessed as inhibition of cell growth at 200 nM incubated for 72 hrs in presence of BTK inhibitor, ibrutinib at 6.2 nM by CCK-8 assay (reference value: 26.07 %); assay type: functional
OCI-Ly10 [20] = test: Induction of apoptosis in human OCILY10 cells assessed as upregulation of PARP cleavage at 0.1 to 1 uM incubated for 24 hrs by immunoblotting analysis; assay type: functional, cell-based; details: dose 0.1-1 µM
OCI-Ly10 [21] = test: Synergistic antiproliferative activity against human OCILY10 cells harboring MYD88 L265P assessed as inhibition of cell growth at 400 nM incubated for 72 hrs in presence of BTK inhibitor, ibrutinib at 25 nM by CCK-8 assay (reference value: 34.46 %); assay type: functional
[22] = target: Interleukin-1 receptor-associated kinase 4 (Homo sapiens) (UniProt Q9NWZ3); test: Inhibition of IRAK4 in human OCILY10 cells assessed as downregulation of IRAK4 phosphorylation level by immunoblotting analysis; assay type: cell-based
OCI-Ly10 [23] = test: Synergistic antiproliferative activity against human OCILY10 cells harboring MYD88 L265P assessed as inhibition of cell growth at 1600 nM incubated for 72 hrs in presence of BTK inhibitor, ibrutinib at 6.2 nM by CCK-8 assay (reference value: 64.69 %); assay type: functional
OCI-Ly10 [24] = test: Synergistic antiproliferative activity against human OCILY10 cells harboring MYD88 L265P assessed as inhibition of cell growth at 400 nM incubated for 72 hrs in presence of BTK inhibitor, ibrutinib at 6.2 nM by CCK-8 assay (reference value: 34.46 %); assay type: functional

Compound `Cn1cc(-c2cc3c(cc2NC(=O)c2coc(-c4ccnc(N)c4)n2)CC(C)(C)O3)cn1` has an Activity (OCI-Ly10 [1]) of 13.2%, an Activity (OCI-Ly10 [2]) of 48.3% and an Activity (OCI-Ly10 [3]) of 54.4%. The Activity (OCI-Ly10 [4]) was 11.2%, the Activity (OCI-Ly10 [5]) was 7.94% and the Activity (OCI-Ly10 [6]) was “Active”. The inhibition [7] was “inactive”, the Activity (OCI-Ly10 [8]) was “Active” and the inhibition at 1.6 µM (OCI-Ly10 [9]) was 70.6%. For the same compound, the Activity (OCI-Ly10 [10]) was 9.32%, the inhibition [11] was “inactive” and the inhibition at 0.2 µM (OCI-Ly10 [12]) was 26.9%. The inhibition at 0.8 µM (OCI-Ly10 [13]) was 88.4%, the inhibition [14] was “inactive” and the IC50 [15] was 8.7 nM. The inhibition at 0.1 µM (OCI-Ly10 [16]) was 44.9%, the inhibition at 0.8 µM (OCI-Ly10 [17]) was 64.6% and the inhibition at 0.1 µM (OCI-Ly10 [18]) was 62.1%. The inhibition at 0.2 µM (OCI-Ly10 [19]) was 53.8%, the Activity (OCI-Ly10 [20]) was “Active” and the inhibition at 0.4 µM (OCI-Ly10 [21]) was 83.2%. The inhibition [22] was “Dose-Dependent Effect”, the inhibition at 1.6 µM (OCI-Ly10 [23]) was 88.6% and the inhibition at 0.4 µM (OCI-Ly10 [24]) was 67.2%.
